The record followed here is ChEMBL document CHEMBL3259736, “Synthesis of new simplified hemiasterlin derivatives with α,β-unsaturated carbonyl moiety” (Bioorg Med Chem Lett, 2014).

Type in all cases: functional, cell-based
The test system of one assay is KB. Kind of assay: Cytotoxicity against human KB cells assessed as inhibition of cell growth after 3 days by MTT assay. The settings on record: 72 h.
A further assay deals with HepG2. The assay is described as follows: Cytotoxicity against human HepG2 cells assessed as inhibition of cell growth after 3 days by MTT assay. The settings on record: HepG2, 72 h.
A short description of assay [1]: Cytotoxicity against human Lu cells assessed as inhibition of cell growth after 3 days by MTT assay. To be noted: 72 h.
The test system of another assay is MCF7. Kind of assay: Cytotoxicity against human MCF7 cells assessed as inhibition of cell growth after 3 days by MTT assay. The settings on record: MCF7, 72 h.

In the case of `CC(=O)N/C(=C\c1ccsc1)C(=O)N[C@H](C(=O)N(C)[C@H](/C=C(\C)C(=O)O)C(C)C)C(C)(C)C`, the IC50 with KB was 0.234 µM; in the assay with HepG2, 0.0632 µM; in assay [1], > 0.269 µM; in the assay with MCF7, > 0.269 µM.

For the compound `CCOC(=O)/C(C)=C/[C@H](C(C)C)N(C)C(=O)[C@@H](NC(=O)/C(=C/c1ccc2ccccc2c1)NC(C)=O)C(C)(C)C`, the IC50 is 0.023 µM in the assay with KB, 0.0231 µM with HepG2, > 0.269 µM in assay [1] and 0.0679 µM with MCF7.

On to `CCOC(=O)/C(C)=C/[C@@H](NC(=O)[C@@H](NC(=O)/C(=C/c1ccsc1)NC(C)=O)C(C)(C)C)C(C)C`, for which the IC50 with KB was 0.107 µM; in the assay with HepG2 it was 0.0576 µM; in assay [1] it was > 0.269 µM; in the assay on MCF7 it was 0.203 µM.

As for `CCOC(=O)/C(C)=C/[C@H](C(C)C)N(C)C(=O)[C@@H](NC(=O)/C(=C/c1ccoc1)NC(C)=O)C(C)(C)C`, the IC50 with KB worked out at 0.0241 µM; in the assay on HepG2, 0.0163 µM; in assay [1] it was 0.158 µM; in the assay on MCF7 it was 0.113 µM.

On to `CC(=O)N/C(=C\c1ccoc1)C(=O)N[C@H](C(=O)N[C@H](/C=C(\C)C(=O)O)C(C)C)C(C)(C)C`, for which the IC50 was 0.155 µM with KB, > 0.269 µM with HepG2, > 0.269 µM in assay [1] and > 0.269 µM in the assay on MCF7.

For `Cc1c2ccncc2c(C)c2c1[nH]c1ccccc12` [ELLIPTECINE], the IC50 stood at 0.00126 µM in the assay on KB, 0.00126 µM with HepG2, 0.00182 µM in assay [1] and 0.00215 µM in the assay on MCF7.

With `CCOC(=O)/C(C)=C/[C@@H](NC(=O)[C@@H](NC(=O)/C(=C/c1ccc(OC)cc1)NC(C)=O)C(C)(C)C)C(C)C`, the IC50 (in the assay with KB; in the assay with HepG2; in assay [1]; in the assay on MCF7) was > 0.269 µM in each case.

As to `CCOC(=O)/C(C)=C/[C@@H](NC(=O)[C@@H](NC(=O)/C(=C/c1ccc(Br)cc1)NC(C)=O)C(C)(C)C)C(C)C`, the IC50 (in the assay on KB; in the assay with HepG2; in assay [1]; in the assay with MCF7) was > 0.269 µM each time.

Consider `CCOC(=O)/C(C)=C/[C@@H](NC(=O)[C@@H](NC(=O)/C(=C/c1cccc(OC)c1)NC(C)=O)C(C)(C)C)C(C)C`, for which the IC50 worked out at 0.0774 µM in the assay on KB, 0.0477 µM with HepG2, 0.228 µM in assay [1] and 0.062 µM with MCF7.

Turning to `CC(=O)N/C(=C\c1ccoc1)C(=O)N[C@H](C(=O)N(C)[C@H](/C=C(\C)C(=O)O)C(C)C)C(C)(C)C`, the IC50 was > 0.269 µM in the assay with KB, 0.149 µM in the assay on HepG2, > 0.269 µM in assay [1] and > 0.269 µM in the assay with MCF7.

On to `CC(=O)N/C(=C\c1ccc(Br)cc1)C(=O)N[C@H](C(=O)N[C@H](/C=C(\C)C(=O)O)C(C)C)C(C)(C)C`, for which the IC50 (in the assay with KB; in the assay with HepG2; in assay [1]; with MCF7) was > 0.269 µM each time.

As for `CCOC(=O)/C(C)=C/[C@H](C(C)C)N(C)C(=O)[C@@H](NC(=O)/C(=C/c1ccc(Br)cc1)NC(C)=O)C(C)(C)C`, the half-inhibitory concentration (IC50) is 0.049 µM in the assay on KB, > 0.269 µM in the assay on HepG2, > 0.269 µM in assay [1] and > 0.269 µM in the assay on MCF7.

Turning to `CC(=O)N/C(=C\c1ccsc1)C(=O)N[C@H](C(=O)N[C@H](/C=C(\C)C(=O)O)C(C)C)C(C)(C)C`, the half-maximal inhibitory concentration (IC50) (in the assay on KB; in the assay on HepG2; in assay [1]; in the assay on MCF7) was > 0.269 µM in each case.

For the compound `CCOC(=O)/C(C)=C/[C@@H](NC(=O)[C@@H](NC(=O)/C(=C/c1ccoc1)NC(C)=O)C(C)(C)C)C(C)C`, the IC50 was 0.0862 µM in the assay on KB, 0.0673 µM in the assay with HepG2, > 0.269 µM in assay [1] and > 0.269 µM in the assay with MCF7.

As to `CC(=O)N/C(=C\c1cccc(Br)c1)C(=O)N[C@H](C(=O)N[C@H](/C=C(\C)C(=O)O)C(C)C)C(C)(C)C`, the 50% inhibitory concentration (IC50) (in the assay with KB; in the assay on HepG2; in assay [1]; in the assay on MCF7) was > 0.269 µM throughout.

Take `CCOC(=O)/C(C)=C/[C@H](C(C)C)N(C)C(=O)[C@@H](NC(=O)/C(=C/c1ccc(OC)cc1)NC(C)=O)C(C)(C)C`: the IC50 was 0.0037 µM in the assay with KB, 0.0037 µM in the assay with HepG2, > 0.269 µM in assay [1] and 0.215 µM in the assay with MCF7.

For `CCOC(=O)/C(C)=C/[C@@H](NC(=O)[C@@H](NC(=O)/C(=C/c1cccc(Br)c1)NC(C)=O)C(C)(C)C)C(C)C`, the IC50 (in the assay on KB; in the assay with HepG2; in assay [1]; in the assay on MCF7) was > 0.269 µM each time.

As to `CCOC(=O)/C(C)=C/[C@H](C(C)C)N(C)C(=O)[C@@H](NC(=O)/C(=C/c1ccsc1)NC(C)=O)C(C)(C)C`, the IC50 in the assay with KB is 0.202 µM; in the assay on HepG2, 0.015 µM; in assay [1], > 0.269 µM; in the assay on MCF7, > 0.269 µM.

For `CC(=O)N/C(=C\c1ccc2ccccc2c1)C(=O)N[C@H](C(=O)N(C)[C@H](/C=C(\C)C(=O)O)C(C)C)C(C)(C)C`, the 50% inhibitory concentration (IC50) in the assay with KB was 0.0697 µM; in the assay on HepG2, 0.013 µM; in assay [1], > 0.269 µM; with MCF7, > 0.269 µM.

Consider `CC(=O)O[C@H]1C(=O)[C@@]2(C)[C@H]([C@H](OC(=O)c3ccccc3)[C@]3(O)C[C@H](OC(=O)[C@H](O)[C@@H](NC(=O)c4ccccc4)c4ccccc4)C(C)=C1C3(C)C)[C@]1(OC(C)=O)CO[C@@H]1C[C@@H]2O` [PACLITAXEL], for which the IC50 with KB turned out to be 0.0039 µM; with HepG2, 0.00019 µM.

On to `CCOC(=O)/C(C)=C/[C@@H](NC(=O)[C@@H](NC(=O)/C(=C/c1ccc2ccccc2c1)NC(C)=O)C(C)(C)C)C(C)C`, for which the IC50 is 0.0308 µM in the assay on KB, 0.0397 µM in the assay with HepG2, > 0.269 µM in assay [1] and 0.0423 µM with MCF7.

`CC(=O)N/C(=C\c1ccc(Br)cc1)C(=O)N[C@H](C(=O)N(C)[C@H](/C=C(\C)C(=O)O)C(C)C)C(C)(C)C`: the IC50 (in the assay with KB; with HepG2; in assay [1]; with MCF7) was > 0.269 µM in each case.

For `CC(=O)N/C(=C\c1ccc2ccccc2c1)C(=O)N[C@H](C(=O)N[C@H](/C=C(\C)C(=O)O)C(C)C)C(C)(C)C`, the IC50 is 0.063 µM in the assay with KB, 0.0334 µM in the assay with HepG2, > 0.269 µM in assay [1] and > 0.269 µM in the assay on MCF7.

Regarding `CCOC(=O)/C(C)=C/[C@H](C(C)C)N(C)C(=O)[C@@H](NC(=O)/C(=C/c1cccc(OC)c1)NC(C)=O)C(C)(C)C`, the IC50 (in the assay with KB; with HepG2; in assay [1]; in the assay with MCF7) was > 0.269 µM each time.

`COc1ccc(/C=C(\NC(C)=O)C(=O)N[C@H](C(=O)N(C)[C@H](/C=C(\C)C(=O)O)C(C)C)C(C)(C)C)cc1`: the IC50 with KB was 0.0158 µM; in the assay with HepG2, 0.0638 µM; in assay [1], > 0.269 µM; with MCF7 it was > 0.269 µM.

As to `COc1cccc(/C=C(\NC(C)=O)C(=O)N[C@H](C(=O)N(C)[C@H](/C=C(\C)C(=O)O)C(C)C)C(C)(C)C)c1`, the half-maximal inhibitory concentration (IC50) (in the assay on KB; with HepG2; in assay [1]; with MCF7) was > 0.269 µM throughout.

Regarding `COc1cccc(/C=C(\NC(C)=O)C(=O)N[C@H](C(=O)N[C@H](/C=C(\C)C(=O)O)C(C)C)C(C)(C)C)c1`, the IC50 (in the assay with KB; in the assay with HepG2; in assay [1]; in the assay with MCF7) was > 0.269 µM throughout.

For the compound `CC(=O)N/C(=C\c1ccco1)C(=O)N[C@H](C(=O)N[C@H](/C=C(\C)C(=O)O)C(C)C)C(C)(C)C`, the IC50 is 0.0082 µM with KB, 0.0178 µM in the assay with HepG2, > 0.269 µM in assay [1] and > 0.269 µM in the assay with MCF7.

Regarding `CCOC(=O)/C(C)=C/[C@@H](NC(=O)[C@@H](NC(=O)/C(=C/c1ccco1)NC(C)=O)C(C)(C)C)C(C)C`, the IC50 in the assay on KB is 0.161 µM; with HepG2, 0.214 µM; in assay [1], > 0.269 µM; in the assay on MCF7, > 0.269 µM.

On to `CC(=O)N/C(=C\c1ccco1)C(=O)N[C@H](C(=O)N(C)[C@H](/C=C(\C)C(=O)O)C(C)C)C(C)(C)C`, for which the IC50 is 0.188 µM in the assay with KB, > 0.269 µM in the assay on HepG2, > 0.269 µM in assay [1] and > 0.269 µM in the assay with MCF7.

As to `COc1ccc(/C=C(\NC(C)=O)C(=O)N[C@H](C(=O)N[C@H](/C=C(\C)C(=O)O)C(C)C)C(C)(C)C)cc1`, the IC50 (in the assay on KB; in the assay with HepG2; in assay [1]; with MCF7) was > 0.269 µM each time.

Take `CCOC(=O)/C(C)=C/[C@H](C(C)C)N(C)C(=O)[C@@H](NC(=O)/C(=C/c1ccco1)NC(C)=O)C(C)(C)C`: the IC50 came out at 0.0035 µM in the assay with KB, 0.0314 µM in the assay with HepG2, 0.231 µM in assay [1] and 0.178 µM with MCF7.
